Data from the supplement of paper PMC10307832.

Assays:
Assay in all cases: relative viability (nuclei count vs DMSO), 5 days (fraction); higher = more cells survive
[1] = compound: C1COCCN1CC2=CC(=O)C(=CO2)OCCCCCSC3=C4C=CC(=CC4=NC=C3)C(F)(F)F [EHT 1864] + CC1(C)CCC(c2ccc(Cl)cc2)=C(CN2CCN(c3ccc(C(=O)NS(=O)(=O)c4ccc(N[C@H](CCN5CCOCC5)CSc5ccccc5)c(S(=O)(=O)C(F)(F)F)c4)cc3)CC2)C1 [Navitoclax] (partner 0.5 µM)
How it was run: (§1)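 Values are medians from duplicate plates. Each reflects relative viability, defined as the nuclei count of treated wells over that of vehicle wells. Lung cancer cell lines in 1536-well plates were pin-tool dosed one day after seeding with one drug alone or with a fixed anchor-drug dose plus five library-drug doses (not always all listed) in √10 steps, then fixed, stained and imaged at 4× after 5 days.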

[2] = compound: C1COCCN1CC2=CC(=O)C(=CO2)OCCCCCSC3=C4C=CC(=CC4=NC=C3)C(F)(F)F [EHT 1864] + CCNC(=O)c1noc(-c2cc(C(C)C)c(O)cc2O)c1-c1ccc(CN2CCOCC2)cc1 [Luminespib] (partner 0.01 µM)
How it was run: as §1

[3] = compound: C1COCCN1CC2=CC(=O)C(=CO2)OCCCCCSC3=C4C=CC(=CC4=NC=C3)C(F)(F)F [EHT 1864] + COc1cc2c(Oc3ccc(NC(=O)C4(C(=O)Nc5ccc(F)cc5)CC4)cc3F)ccnc2cc1OCCCN1CCOCC1 [Foretinib] (partner 0.25 µM)
How it was run: as §1

[4] = compound: C1COCCN1CC2=CC(=O)C(=CO2)OCCCCCSC3=C4C=CC(=CC4=NC=C3)C(F)(F)F [EHT 1864] + C[C@]1(O)C[C@@H](c2nc(-c3ccc4ccc(-c5ccccc5)nc4c3)c3c(N)nccn32)C1 [Linsitinib] (partner 1 µM)
How it was run: as §1

Cell Line	relative viability ([1]; first compound 0.04 µM)	relative viability ([1]; first compound 0.1265 µM)	relative viability ([1]; first compound 0.4 µM)	relative viability ([1]; first compound 1.265 µM)	relative viability ([1]; first compound 4 µM)	relative viability ([2]; first compound 0.04 µM)	relative viability ([2]; first compound 0.1265 µM)	relative viability ([2]; first compound 0.4 µM)	relative viability ([2]; first compound 1.265 µM)	relative viability ([2]; first compound 4 µM)	relative viability ([3]; first compound 0.04 µM)	relative viability ([3]; first compound 0.1265 µM)	relative viability ([3]; first compound 0.4 µM)	relative viability ([3]; first compound 1.265 µM)	relative viability ([3]; first compound 4 µM)	relative viability ([4]; first compound 0.04 µM)	relative viability ([4]; first compound 0.1265 µM)	relative viability ([4]; first compound 0.4 µM)	relative viability ([4]; first compound 1.265 µM)	relative viability ([4]; first compound 4 µM)
201T	1.27	1.2	1.22	1.15	1.16	0.994	1.06	1.01	0.891	0.946	0.964	1.05	1.16	0.99	1.08	1.08	1.05	1.08	0.925	1.03
A549	1.16	1.2	0.952	1.18	0.912						0.995	0.986	0.978	0.815	0.714	0.598	0.658	0.641	0.599	0.639
A-427	1.15	0.941	0.823	0.911	0.884	0.876	0.952	0.899	0.942	0.906	1.03	0.942	0.986	1.05	0.968	1.09	1.18	1.15	1.11	1.13
ABC-1						0.816		0.48	0.387	0.422	1.22	1.06	1.03	0.954	0.834	0.769	0.797	0.73	0.718	0.555
BEN	0.0831	0.0599	0.0547	0.075	0.238	0.264	0.17	0.527	0.333	0.533	0.702	0.585	0.827	0.484	0.771	0.862	0.801	0.879	0.851	0.985
CAL-12T	1.03	1.07	1.04	1.19	1.22	0.563	0.178	0.366	0.373	0.46	1	1.05	1	0.852	0.908	0.824	0.667	0.79	0.824	0.838
COR-L23	1.01	0.901	1.01	0.979	0.932	0.699	0.528	0.613	0.642	0.494	1.01	0.922	1	0.948	0.86	0.94	0.921	0.942	0.949	0.873
COR-L 105	0.883	0.783	0.801	0.707	0.723	0.748	0.751	0.808	0.628	0.686	0.959	1.02	1.25	1.19	0.917	0.889	0.963	0.906	1.12	0.848
Calu-6	0.816	0.7	0.876	0.757	0.764						0.932	0.853	0.846	0.913	0.87	0.99	0.737	0.96	0.875	0.893
ChaGo-K-1	1.07	0.938	0.802		1.07	0.487	0.604	0.703	0.547	0.559	0.858	0.888	0.809	0.895	0.814					
EKVX	0.937	0.906	0.88	0.857	1.03	0.9	0.871	0.834	0.836	0.885	1.09	0.758	0.715	0.661	0.592	0.886	0.976	1.04	1.08	1.02
EMC-BAC-2	1.09	1.09	1.12	1.13	1.2	1.12	1.09	1.16	1.12	1.05	0.967	1.06	1.01	1.01	0.951	0.803	0.757	0.792	0.815	0.784
EPLC-272H	1.11	1.05	1.18	1.28	1.24	0.347	0.365	0.266	0.521	0.606	0.684	0.575	0.694	0.887	0.875	1.4	1.16	1.04	1.32	1.25
H3255	0.561	0.506	0.457	0.441	0.448	0.895	0.799	1.01	0.917	1.07	0.79	0.818	0.903	0.844	0.978	0.934	0.848	1.04	1	0.898
HARA	1.11	1.15	1.1	1.19	0.996	0.738	0.68	0.75	0.644	0.719	0.889	0.838	0.991	0.932	0.98	0.963	0.928	1.08	0.983	1.01
HCC-15	0.732	0.576	0.682	0.649	0.736	0.451		0.24	0.369	0.251	0.976		0.994	0.882	1.01	0.877	0.827	0.888	0.86	0.922
HCC-44	1.02	0.951	0.905	0.904	1.08	1.04	0.906	0.924	1.02	1.33						0.692	0.58	0.598	0.642	0.621
HCC-78	0.618	0.746	0.693	0.685	1.1						0.578	0.474	0.538	0.606	0.633	0.555	0.452	0.394	0.486	0.809
HCC-366	1.14		1.01	0.995	1.14						0.914	0.859	0.888	0.891	0.963	0.647		0.699	0.598	0.522

Cell Line	relative viability ([1]; first compound 0.04 µM)	relative viability ([1]; first compound 0.1265 µM)	relative viability ([1]; first compound 0.4 µM)	relative viability ([1]; first compound 1.265 µM)	relative viability ([1]; first compound 4 µM)	relative viability ([2]; first compound 0.04 µM)	relative viability ([2]; first compound 0.1265 µM)	relative viability ([2]; first compound 0.4 µM)	relative viability ([2]; first compound 1.265 µM)	relative viability ([2]; first compound 4 µM)	relative viability ([3]; first compound 0.04 µM)	relative viability ([3]; first compound 0.1265 µM)	relative viability ([3]; first compound 0.4 µM)	relative viability ([3]; first compound 1.265 µM)	relative viability ([3]; first compound 4 µM)	relative viability ([4]; first compound 0.04 µM)	relative viability ([4]; first compound 0.1265 µM)	relative viability ([4]; first compound 0.4 µM)	relative viability ([4]; first compound 1.265 µM)	relative viability ([4]; first compound 4 µM)
HCC-827	1.1	0.844	0.96	1.02	0.944	0.517	0.427	0.465	0.487	0.588	0.985	0.965	1.01	0.977	0.928	0.953	0.858	1.01	0.926	0.876
HOP-62	0.915		1.02	0.977	1.22	0.932		0.765	0.798	0.982	1.02		1.03	0.991	1.13	1.13		0.865	0.943	1.03
IA-LM	0.697	0.653	0.775	0.803	0.569						1.21		1.09	1.03	0.901	0.524	0.325	0.572	0.463	0.644
LC-2-ad	0.49		0.49	0.382	0.39	1.12		0.912	1	0.951	0.859		0.905	1.01	0.962	0.862		0.806	0.804	0.79
LCLC-97TM1	0.414		0.342	0.339	0.503	0.701	0.517	0.772	0.718	0.784	0.848	0.842	0.948	0.939	0.949	0.202		0.148	0.168	0.233
LCLC-103H						0.874	0.798	0.932	0.975	0.919	0.791	0.618	0.736	0.637	0.733	1.12	0.83	1.01	1.09	1.39
LK-2	0.839	0.674	0.847	0.94	0.784	0.167		0.224	0.178	0.177	1.14		0.919	0.982	1.35	0.543	0.527	0.538	0.623	0.724
LOU-NH91	0.693	0.652	0.789	0.694	0.567	0.345	0.345	0.342	0.294	0.32	0.956	0.874	0.922	0.96	0.814	0.975	0.875	1.06	1.1	0.767
NCI-H358						0.302	0.398	0.313	0.469	0.414	0.689	0.613	0.848	0.637	0.621	0.759		0.738	0.794	0.639
NCI-H522						1.18		1.23	1.06	1.22										
NCI-H650						0.882	0.658	0.664	0.889	0.865	0.99	0.859	0.97	1.03	0.99	0.94		1.01	0.947	0.884
NCI-H661						0.951	0.838	0.877	0.77	0.565	1.03	0.956	0.993	0.986	0.817	0.603	0.516	0.535	0.512	0.449
NCI-H1299	1.02	1.02	1.05	0.986	0.984						1.05	1.09	1.06	1.04	1.07	0.903	0.877	0.981	0.969	0.936
NCI-H1563						0.497	0.503	0.556	0.54	0.553	0.962	0.896	0.978	0.857	0.908	1.17	1.3	1.24	1.17	0.94
NCI-H1650	1.12	0.783	1.14	1.4	1.18			0.203	0.201	0.198			1.18	0.896	0.92					
NCI-H1703	1.13	0.968	0.956	0.849	0.749						0.309		0.299	0.339	0.382	0.725		0.931	0.789	0.647
NCI-H1792	0.68	0.54	0.648	0.616	0.718	0.393		0.376	0.361	0.533						0.514	0.376	0.556	0.57	0.628
NCI-H2170	0.674	0.511	0.646	0.573	0.56	0.725	0.751	0.745	0.63	0.612	1.01	1.01	0.998	0.943	1					
NCI-H2342						0.669	0.651	0.744	0.702	0.759	1.04	0.903	1.07	0.963	1.06					
